Measurements: patent publication US12036224B2, “Formulations, methods, kits, and dosage forms for treating atopic dermatitis and for improved stability of an active pharmaceutical ingredient” (Libertas Bio, Inc., priority 2017, dated 2024)

Test system: IL-17-SYK mediated CCL20 release, human keratinocytes
Test: Inhibition of IL17 mediated CCL20 release in keratinocytes
Type: cell-based
Details: single donor, n=3
Description: In FIG. 12, each bar represents mean and SEM for 3 replicates (n=3) of a single donor. FIG. 13 is a graph showing average weekly change in pruritus (NRS) for a placebo, and Compound 1 in the doses of 20 mg, 40 mg and 80 mg.

COc1cc(Nc2ncc(F)c(Nc3ccc4c(n3)NC(=O)C(C)(C)O4)n2)cc(OC)c1OC [Tamatinib, reference compound]
inhibition of IL-17-SYK mediated CCL20 release: unlike Tamatinib and Tofacitinib, Compound 1 inhibits
